Values of other authors, collected in patent US20170196789A1, “REDUCTION OF ORAL AND EPIDERMAL MALODOR IN HUMANS AND ANIMALS” (priority 2014, published 2017).

Assays:
[1] = after adhesion to the mucus membrane surface
[2] = in vivo
[3] = chlorhexidine exposure, current animal research

SMILES: [H]/N=C(\N/C(=N/[H])NCCCCCCNC(=N)NC(=N)Nc1ccc(Cl)cc1)Nc1ccc(Cl)cc1 [chlorhexidine, Chlorhexidine]
- share of the total consumed amount remaining in the oral cavity [1]: Approximately thirty
- absorption through the digestive system [2]: minimal
- toxic and/or cancerous effects in animals [3]: does not demonstrate any evidence of toxic and/or cancerous effects
